Values of other authors in patent US11103473B2, “Treatment and prevention of autism and autism spectrum disorders” (ASDERA LLC, priority 2013, dated 2021).
Read-outs that look alike come from different tables or passages of the source. Values belong to the compound of their own block, whether it stands above or below them.

Key:
[1] = for ulcerative index (UI): equimolar dose, prodrug vs parent NSAID
[2] = prodrug vs parent DCF
[3] = pH 7.1
[4] = target: albumin (Homo sapiens, UniProt P02768)
[5] = for Cmax (μg/ml) / Tmax (h) / % excreted (5 d) / t1/2 (h): mean; for Cmax (μg/ml) / Tmax (h): Ito (1994); for % excreted (5 d): Sato (1997)
[6] = test system: animal models of seizures; settings: in vivo
[7] = test system: Rat: Hint paw
[8] = not given; remark: listed apart in the source
[9] = not given; remark: listed apart in the source
[10] = test system: Mouse: writhing; settings: relative to parent
[11] = not given; remark: listed apart in the source
[12] = relative to parent, animal models

albumin, sequence (P02768 25-609): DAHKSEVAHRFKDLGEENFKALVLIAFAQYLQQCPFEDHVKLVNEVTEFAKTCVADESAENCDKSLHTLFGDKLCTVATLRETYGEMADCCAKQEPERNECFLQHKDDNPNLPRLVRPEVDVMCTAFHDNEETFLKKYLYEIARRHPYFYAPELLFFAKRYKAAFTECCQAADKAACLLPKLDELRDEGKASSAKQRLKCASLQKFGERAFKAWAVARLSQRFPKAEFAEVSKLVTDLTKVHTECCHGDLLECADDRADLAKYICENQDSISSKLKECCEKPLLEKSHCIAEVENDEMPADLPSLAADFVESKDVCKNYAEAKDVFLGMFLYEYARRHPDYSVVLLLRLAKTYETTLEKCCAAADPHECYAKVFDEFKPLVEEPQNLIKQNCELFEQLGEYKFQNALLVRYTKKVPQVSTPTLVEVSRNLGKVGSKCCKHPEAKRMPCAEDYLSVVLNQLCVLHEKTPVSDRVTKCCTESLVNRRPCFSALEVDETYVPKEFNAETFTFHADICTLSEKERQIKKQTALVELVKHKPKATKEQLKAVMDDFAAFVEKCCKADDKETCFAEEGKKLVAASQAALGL

SMILES: CC(=O)Oc1ccccc1C(=O)O [Aspirin, 2-(acetyloxy)benzoic acid]
ulcerative index (UI) [1]: 57.4

SMILES: O=C(O)Cc1ccccc1Nc1c(Cl)cccc1Cl [DCF, 2-(2-[(2,6-dichlorophenyl)amino]phenyl)acetic acid]
Cmax [2]: 20190 ± 6010 ng/mL | gastric damage ([1]; 50 mg/kg): severe gastric damage | gastric damage ([1]; 200 mg/kg): markedly more damage

SMILES: CC(C)c1c(CO)n(C)n(-c2ccccc2)c1=O [HMP, 3-hydroxymethyl propyphenazon]
average number of ulcers ([1]; in vivo): 1.25

SMILES: Cc1cccc(Nc2ccccc2C(=O)O)c1C [MFA, 2-[(2,3-dimethylphenyl)amino]benzoic acid]
water solubility [3]: 0.004% | apparent volume of distribution (Vzss/F) (500 mg oral dose): 1.06 L/kg | time of peak levels (PL) (adults): 2 h | steady-state concentrations (adults, 1 g 4x daily, reached on the 2nd day): 20 µg/mL | plasma PL (after a 1 g oral dose): 10 to 20 µg/mL | time to plasma PL (after a 1 g oral dose): 2 to 4 h | drug accumulation (after multiple doses): no evidence of drug accumulation | elimination half-life (in vivo): ~2 h and ≈ 2 h | fecal route of elimination, share of the dose (mainly unconjugated 3-carboxy MFA): ≤ 20% | dose excreted into the urine as glucuronide of (share of MFA dose per species): 6% | dose excreted into the urine (total, primarily as glucuronides): Approximately 52% | mean absorption (two 500 mg single oral dose studies): 30.5 µg/h/mL | bound to albumin [4]: > 90% | Cmax ([5]; Healthy Adults (18-56 yr)): 10000 ng/mL | Tmax ([5]; Healthy Adults (18-56 yr)): 2.0 h | t1/2 ([5]; Healthy Adults (18-56 yr)): 2 to 4 h | Cmax (μg/ml) ([5]; Preterm Children (0-5 d)): 3.8 (12) μg/ml | Tmax (h) ([5]; Preterm Children (0-5 d)): 8.0 (12) h | % excreted (5 d) ([5]; Preterm Children (0-5 d)): 16.6 (5) % | t1/2 (h) ([5]; Preterm Children (0-5 d), bottom: Sato (1997)): 27.0 (5) h | t1/2 (h) ([5]; Preterm Children (0-5 d), top: Ito (1994)): 21.7 (12) h | Cmax (μg/ml) ([5]; Preterm Children (6-22 d)): 3.7 (5) μg/ml | Tmax (h) ([5]; Preterm Children (6-22 d)): 6.8 (5) h | % excreted (5 d) ([5]; Preterm Children (6-22 d)): 45.7 (1) % | t1/2 (h) ([5]; Preterm Children (6-22 d), bottom: Sato (1997)): 8.4 (1) h | t1/2 (h) ([5]; Preterm Children (6-22 d), top: Ito (1994)): 11.6 (5) h | efficacy in animal models of seizures [6]: shown efficacy | average number of ulcers ([1]; in vivo): 3.17

SMILES: CC(C)Cc1ccc(C(C)C(=O)O)cc1 (stereo not shown) [ibuprofen, 2-[4-(2-methylpropyl)phenyl]propanoic acid]
ulcerative index (UI) [1]: 45.8

Continued, in another order:

t1/2 [h] pH 1.2 (SGF) ([8]; simulated gi fluid): “suffi- | t1/2 [h] pH 7.5 (serum/plasma) [9]: “shorter | GI risk vs MFA ([1]; in vivo): “no
SMILES: CC(=O)Nc1ccc(OC(=O)c2ccccc2Nc2cccc(C)c2C)cc1 [MFA-APAP Without spacer]
Rat: Hint paw vs MFA ([7]; relative to parent): “better”

t1/2 [h] pH 1.2 (SGF) ([8]; simulated gi fluid): 18.7 h | half-life in simulated gastric fluid ([8]; simulated gi fluid, pH 1.2): 18.69 h | half-life in simulated intestinal fluid ([11]; simulated gi fluid, pH 7.4): 8.98 h | t1/2 [h] pH 7.5 (SIF) ([11]; simulated gi fluid): 9.0 h | GI risk vs MFA ([1]; in vivo): 30%
SMILES: Cc1cccc(Nc2ccccc2C(=O)OCc2c(C(C)C)c(=O)n(-c3ccccc3)n2C)c1C [MFA-PPA Without spacer]
Rat: Hint paw vs MFA ([7]; @2-6 h): ≈60% | Mouse: writhing vs MFA [10]: 63% | average number of ulcers ([1]; in vivo): 1.00

t1/2 [h] pH 1.2 (SGF) ([8]; simulated gastric fluid): 20.8 h | t1/2 [h] pH 7.5 (SIF) ([11]; simulated intestinal fluid): 8.9 h | GI risk vs MFA [1, 12]: 50%
SMILES: Cc1cccc(Nc2ccccc2C(=O)O[C@@H]2C[C@H](C)CC[C@H]2C(C)C)c1C [MFA-menthol]
Rat: Hint paw vs MFA ([7]; relative to parent): 115% | Mouse: writhing vs MFA [10]: 115% | ulcer index vs parent drug ([1]; in vivo): better ulcer index than the parent drug

t1/2 [h] pH 1.2 (SGF) ([8]; simulated gi fluid): 23.1 h | t1/2 [h] pH 7.5 (SIF) ([11]; simulated gi fluid): 7.1 h | GI risk vs MFA [1, 12]: 60%
SMILES: Cc1ccc(C(C)C)c(OC(=O)c2ccccc2Nc2cccc(C)c2C)c1 [MFA-thymol]
Rat: Hint paw vs MFA ([7]; relative to parent): 125% | Mouse: writhing vs MFA [10]: 150% | ulcer index vs parent drug ([1]; in vivo): better ulcer index than the parent drug
